Laboratory results: US5792796A, “Methods for treating anxiety and panic” (Warner-Lambert Company, priority 1995, dated 1998)

Experiments:
[1] = system: rats; assay: Rat conflict test
Protocol: Male Hooded Lister rats (200-250 g) were obtained from Interfauna (Huntingdon, UK) and male TO mice (20-25 g) were obtained from Bantin and Kingman (Hull, UK). Both rodent species were housed in groups of six. Ten Common Marmosets (Callithrix Jacchus) weighing between 280 and 360 g, bred at Manchester University Medical School (Manchester, UK) were housed in pairs. All animals were housed under a 12-hour light/dark cycle (lights on at 07.00 hour) and with food and water ad libitum.
Rats were trained to press levers for food reward in operant chambers. The schedule consisted of alternations of four 4-minute unpunished periods on variable interval of 30 seconds signalled by chamber lights on and three 3-minute punished periods on fixed ratio 5 (by footshock concomitant to food delivery) signalled by chamber lights off. The degree of footshock was adjusted for each rat to obtain approximately 80% to 90% suppression of responding in comparison with unpunished responding. Rats received saline vehicle on training days.
The results are expressed as mean percent increase or decrease of lever pressing (vertical bars represent ±SEM) of at least 5 animals per group on test day compared with mean performances obtained the 2 previous days following vehicle administration.
*p <0.05, **p <0.01 (paired Student t-test).

[2] = system: glycine/NMDA receptor; settings: previous radioligand binding studies; cited from earlier work
[3] = in vivo; cited from earlier work
[4] = in vivo; cited from earlier work; remark: listed apart in the source

| SMILES | reduction in lever pressing in the unpunished period (indicating sedation/ataxia) ([1]; 100 mg/kg (highest dose tested)) [%] | binding to the glycine/NMDA receptor [2] | penetration of the blood-brain barrier [3] | metabolism in the body [4] | increase in lever pressing in the punished period ([1]; 3 mg/kg (minimum effective dose), 40 minutes before test) [%] | maximal effect, increase in lever pressing in the punished period ([1]; 30 mg/kg, 40 minutes before test) [%] | minimal effective dose ([1]; Rattus norvegicus, 40 min, read-out: minimum effective dose (MED) for increased lever pressing in the punished period) [mg/kg] | unpunished responding ([1]; any of the doses tested (1-100 mg/kg)) |
| --- | --- | --- | --- | --- | --- | --- | --- | --- |
| NCC1(CC(=O)O)CCCCC1 [gabapentin, 1-(aminomethyl)cyclohexaneacetic acid] | 37.4 | does not bind | readily penetrates | not metabolized | – | – | – | – |
| CNC1=Nc2ccc(Cl)cc2C(c2ccccc2)=[N+]([O-])C1 [chlordiazepoxide] | – | – | – | – | 128.4 | 330.0 | 3 | not reduced |
